Data: US8883449B2, “Single-chain insulin” (Novo Nordisk A/S, priority 2003, dated 2014)
Like-named read-outs stand apart in the source and are kept apart here. Bridges are numbered along the chain shown (N, C = ends). Where no end group is shown, it is not given here.

Molecular target: human insulin receptor (Homo sapiens, UniProt P06213)
Format: binding
Method: Alternatively the insulin receptor binding was tested in a hIRBHK membrane assay as follows: • Binding of [^125I]-human insulin to membrane-associated recombinant human insulin receptor isoform A (hIR-A) • Reagents: • ^125I-Insulin: Novo Nordisk A/S, mono ^125I-(TyrA14) human insulin • Human Insulin: Novo Nordisk A/S, • Human serum albumin: Dade Behring, ORHA 194 C30, lot 455077 • Plastic ware: Packard OptiPlate™-96, #6,005,290 • Scintillant: Amersham Biosciences, WGA coated PVT microspheres, # RPNQ0001 • Cells: BHK tk^− ts13 cells expressing recombinant human insulin receptor isoform A (hIR12-14).
Extraction of membrane-associated insulin receptors: BHK cells from a ten-layer cell factory were harvested and homogenised in 25 ml of ice-cold buffer (25 mM HEPES pH 7.4, 2.5 mM CaCl2, 1 mM MgCl2, 250 mg/l bacitracin, 0.1 mM Pefablock). The homogenate was layered carefully on 41% sucrose cushions, centrifuged in the ultracentrifuge at 95,000×g for 75 minutes in a Beckman SW28 rotor at 4° C. The plasma membranes were collected from the top of the sucrose cushion, diluted 1:4 with buffer and centrifuged at 40,000×g for 45 min in a Beckman SW28 rotor. The pellets were suspended in buffer (25 mM HEPES pH 7.4, 2.5 mM CaCl2, 1 mM MgCl2, 250 mg/l bacitracin, 0.1 mM Pefablock) and stored at −80° C.
Radioligand binding to membrane-associated insulin receptors was performed in duplicate in 96-well OptiPlates. Membrane protein was incubated for 150 minutes at 25° C. with […] [^125I-Tyr^A14]-human insulin in a total volume of […] assay buffer (50 mM HEPES, 150 mM NaCl, 5 mM MgSO4, 0.01% Triton X-100, 0.1% HSA, Complete™ EDTA-free protease inhibitors) and increasing concentrations of human insulin or insulin analogues (typically between 0.01 and 300 nM). The assay was terminated by addition of 50 μl of a suspension of WGA-coated PVT microspheres (20 mg/ml). Following 5 minutes of slight agitation, the plate was centrifuged at 1500 RPM for 6 minutes, and bound radioactivity quantified by counting in a Packard TopCount NXT after a delay of 60 minutes. […]

[1] = acylated single-chain insulins of Examples 2-4

human insulin receptor, sequence (P06213 28-746 isoform P06213-2 limits assumed): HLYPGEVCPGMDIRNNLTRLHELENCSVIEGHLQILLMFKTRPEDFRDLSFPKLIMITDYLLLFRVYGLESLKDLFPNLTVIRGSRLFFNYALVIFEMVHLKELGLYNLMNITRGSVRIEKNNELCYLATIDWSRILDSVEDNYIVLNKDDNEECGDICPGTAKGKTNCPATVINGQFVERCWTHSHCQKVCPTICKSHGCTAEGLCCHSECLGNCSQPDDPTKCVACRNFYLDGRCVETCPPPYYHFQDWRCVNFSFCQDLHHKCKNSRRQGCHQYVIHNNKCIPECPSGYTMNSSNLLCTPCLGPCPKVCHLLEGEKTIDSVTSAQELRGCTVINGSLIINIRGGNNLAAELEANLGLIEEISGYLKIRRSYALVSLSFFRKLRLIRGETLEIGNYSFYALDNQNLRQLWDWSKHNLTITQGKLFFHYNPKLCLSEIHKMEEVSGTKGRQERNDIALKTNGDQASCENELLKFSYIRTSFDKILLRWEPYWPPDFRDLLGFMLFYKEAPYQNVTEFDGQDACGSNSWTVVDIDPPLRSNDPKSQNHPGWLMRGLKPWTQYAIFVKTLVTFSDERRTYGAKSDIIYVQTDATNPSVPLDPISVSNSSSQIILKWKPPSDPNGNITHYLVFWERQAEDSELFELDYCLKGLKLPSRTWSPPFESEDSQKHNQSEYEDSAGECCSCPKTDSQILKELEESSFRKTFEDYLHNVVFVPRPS
human insulin receptor, sequence (P06213 763-1382 partner limits assumed): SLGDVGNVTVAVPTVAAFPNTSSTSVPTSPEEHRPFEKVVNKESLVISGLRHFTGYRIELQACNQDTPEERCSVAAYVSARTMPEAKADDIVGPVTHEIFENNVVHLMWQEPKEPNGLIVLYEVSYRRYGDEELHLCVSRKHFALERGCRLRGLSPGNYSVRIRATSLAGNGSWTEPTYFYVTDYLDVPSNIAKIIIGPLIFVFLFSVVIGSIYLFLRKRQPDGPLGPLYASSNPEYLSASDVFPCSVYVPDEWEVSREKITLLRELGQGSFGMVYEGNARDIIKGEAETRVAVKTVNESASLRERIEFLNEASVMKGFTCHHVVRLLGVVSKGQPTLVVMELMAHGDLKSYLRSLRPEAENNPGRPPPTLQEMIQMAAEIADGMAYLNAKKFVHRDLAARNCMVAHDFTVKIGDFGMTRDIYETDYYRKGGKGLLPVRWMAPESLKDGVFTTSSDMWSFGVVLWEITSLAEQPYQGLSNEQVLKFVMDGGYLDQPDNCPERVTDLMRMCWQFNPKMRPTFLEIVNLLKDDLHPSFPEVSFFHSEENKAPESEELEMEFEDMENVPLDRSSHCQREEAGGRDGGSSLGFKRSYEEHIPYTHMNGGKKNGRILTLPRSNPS

| IC50 relative to human insulin in %. | Molecule | IC50 relative to human insulin in %. [1] |
| --- | --- | --- |
| 2% | CCCCCCCCCCCCCC(=O)NCCCC[C@@H]1NC(=O)CNC(=O)[C@H](CC(C)C)NC(=O)CNC(=O)[C@H]([C@@H](C)O)NC(=O)[C@H](CCCNC(=N)N)NC(=O)[C@@H]2CCCN2C(=O)[C@H]([C@@H](C)O)NC(=O)[C@H](Cc2ccc(O)cc2)NC(=O)[C@H](Cc2ccccc2)NC(=O)[C@H](Cc2ccccc2)NC(=O)CNC(=O)[C@H](CCCNC(=N)N)NC(=O)[C@H](CCC(=O)O)NC(=O)CNC(=O)[C@@H]2CSSC[C@@H](C(=O)NCC(=O)O)NC(=O)[C@H](Cc3ccc(O)cc3)NC(=O)[C@H](CCC(N)=O)NC(=O)[C@H](CCC(=O)O)NC(=O)[C@H](CC(C)C)NC(=O)[C@H](CCC(N)=O)NC(=O)[C@H](Cc3ccc(O)cc3)NC(=O)[C@H](CC(C)C)NC(=O)[C@H](CO)NC(=O)[C@@H]3CSSC[C@H](NC(=O)[C@H](CCC(N)=O)NC(=O)[C@H](CCC(=O)O)NC(=O)[C@H](C(C)C)NC(=O)[C@H]([C@@H](C)CC)NC(=O)CNC(=O)[C@H](CCC(N)=O)NC(=O)CNC1=O)C(=O)N[C@@H](CSSC[C@H](NC(=O)[C@H](CC(C)C)NC(=O)[C@H](Cc1c[nH]cn1)NC(=O)[C@H](CCC(N)=O)NC(=O)[C@H](CCC(N)=O)NC(=O)[C@@H](NC(=O)[C@@H](N)Cc1ccccc1)C(C)C)C(=O)NCC(=O)N[C@@H](CO)C(=O)N[C@@H](Cc1c[nH]cn1)C(=O)N[C@@H](CC(C)C)C(=O)N[C@@H](C(C)C)C(=O)N[C@@H](CCC(=O)O)C(=O)N[C@@H](C)C(=O)N[C@@H](CC(C)C)C(=O)N[C@@H](Cc1ccc(O)cc1)C(=O)N[C@@H](CC(C)C)C(=O)N[C@@H](C(C)C)C(=O)N2)C(=O)N[C@@H]([C@@H](C)O)C(=O)N[C@@H](CO)C(=O)N[C@@H]([C@@H](C)CC)C(=O)N3 [Example 2, B(1-29)-B3Q-B29R-TGLGK((eps)myristoyl)GQ-A(1-21)-A18Q-A21G Human insulin] |  |
|  | B(1-29)-B3Q-B29R-TGLGK((eps)octadecandioyl)GQ-A(1-21)-A18Q-A21G Human insulin (FVQQHLCGSHLVEALYLVCGERGFFYTPRTGLGK(octadecandioyl)GQGIVEQCCTSICSLYQLEQYCG; disulfide 19-56, 42-47, 7-43) [Example 3] | 0.1% |
|  | B(1-29)-B3Q-B29R-TGLGK((eps)hexadecandioyl-γ-L-Glu)GQ-A(1-21)-A 8Q-A21 G Human insulin [Example 4] | 0.7% |
